# System: Huh7 psiCHECK-miR122 Renilla luciferase reporter, 48 h
# Test: suppression of miR-122 activity, Renilla luciferase sensor – cell-based, Huh7 psiCHECK-miR122, cherry-pick, dose response (AID 652053)
row,Compound,AC40
1,CCOC(=O)N1CCN(S(=O)(=O)c2cc(OCC)ccc2OCC)CC1,4.56 µM
2,CC(=O)c1c(C)[nH]c(C(=O)N(CCc2ccccc2)Cc2ccccc2)c1C,30.8 µM
3,O=C(CCc1ccc(S(=O)(=O)NCCc2ccccc2)cc1)NCc1ccc2c(c1)OCO2,8.53 µM
4,COC(=O)c1c(NC(=O)c2ccc(C)c(S(=O)(=O)Nc3ccccc3C)c2)sc2c1CCCC2,< 0.26 µM
5,COc1ccc(S(=O)(=O)Nc2cc3c(C(C)=O)c(C)oc3c3ccccc23)cc1,14.9 µM
6,COC(=O)c1ccc(NS(=O)(=O)c2cc(C)ccc2OC)cc1,4.89 µM
7,O=S(=O)(Nc1ccccc1)c1ccc(Oc2ncc(C(F)(F)F)cc2Cl)cc1,21.6 µM
8,Cc1cc(C)cc(NS(=O)(=O)c2cc(Br)cnc2N)c1,0.656 µM
9,CCCNC(=O)NNC(=O)c1cc(-c2ccc3c(c2)OCO3)nc2ccccc12,2.65 µM
10,CCN(CC)S(=O)(=O)c1cc(C(=O)N(C)CC(=O)Nc2ccc(Cl)cc2)ccc1Cl,13.9 µM
11,Cc1ccc(S(=O)(=O)Nc2ccc3c(c2)CC(=O)N([C@H](C)CO)C[C@H](C)[C@H](CN(C)Cc2ccc(C(=O)Nc4ccccc4N)cc2)O3)cc1,6.79 µM
12,CCCn1c(N)c(C(=O)CSc2nnc(Cc3cccs3)n2C2CC2)c(=O)n(C)c1=O,7.17 µM
13,Cc1ccc(NS(=O)(=O)c2cccc3nsnc23)cc1C,4.13 µM
14,Cc1cc(Cl)c(Cl)cc1S(=O)(=O)NCCCn1ccnc1,2.79 µM
15,CN(Cc1ccccc1)S(=O)(=O)c1ccc(NC(=S)NC(=O)C2CCCCC2)cc1,13.4 µM
16,COc1ccc(NC(=O)Cc2cccc(F)c2)cc1S(=O)(=O)Nc1ccccc1Cl,4.83 µM
17,CCCCCNS(=O)(=O)c1cc2c3c(c1)CCC(=O)N3CCC2,4.75 µM
18,O=C(Cc1cccc2ccccc12)Nc1ccc(OC(F)F)c(Cl)c1,4.28 µM
19,Cc1ccc(C)c(S(=O)(=O)Nc2ccc(C(=O)N3CCCCC3)cc2)c1,3.58 µM
20,COc1ccc(NP(=O)(Oc2ccc(Cl)cc2)Oc2ccc(Cl)cc2)cc1OC,7.43 µM
21,C[C@@H]1CN([C@@H](C)CO)C(=O)Cc2cc(NC(=O)Nc3ccc(C(F)(F)F)cc3)ccc2O[C@@H]1CN(C)C(=O)Nc1cccc2ccccc12,4.39 µM
22,C[C@@H]1CN([C@H](C)CO)C(=O)Cc2cc(NC(=O)Nc3ccc(C(F)(F)F)cc3)ccc2O[C@@H]1CN(C)C(=O)Nc1cccc2ccccc12,< 0.26 µM
23,COc1cc(C)c(C(C)C)cc1S(=O)(=O)n1cnc(C)c1,2.65 µM
24,Cc1ccc(S(=O)(=O)Nc2ccccc2-c2ccccc2)cc1,12.4 µM
25,C[C@H](CO)N1C[C@H](C)[C@H](CN(C)CC2CCCCC2)Oc2c(NC(=O)c3cnccn3)cccc2C1=O,1.12 µM

row,Compound,AC40
1,Cc1ccc(NS(=O)(=O)c2cc(-c3cc(C)no3)ccc2C(C)C)nc1,2.23 µM
2,C[C@H](CO)N1C[C@H](C)[C@@H](CN(C)Cc2ccc(C(=O)Nc3ccccc3N)cc2)Oc2ccc(N(C)C)cc2CC1=O,11.3 µM
3,Cc1ccccc1NC(=O)Nc1ccc2c(c1)C(=O)N(C)[C@H]1CC[C@H](CC(=O)NCC3CC3)O[C@H]1CO2,1.87 µM
4,CCOc1cc(C)c(S(=O)(=O)Nc2ccc(F)cc2)cc1C,0.908 µM
5,CCc1ccc(-c2cc(C)no2)cc1S(=O)(=O)NCc1ccccc1OC,3.11 µM
6,Cc1ccc(C)c(S(=O)(=O)NCC(c2ccc3c(c2)OCO3)N2CCOCC2)c1 (centres undefined),1.81 µM
7,N#Cc1ccc(NC(=S)N2CCC3CC2c2cc(-c4ccc5c(c4)OCO5)ccc23)cc1 (centres undefined),0.31 µM
8,CCOc1cc(C)c(C(C)C)cc1S(=O)(=O)n1ccc(C)n1,7.45 µM
9,C[C@H](CO)N1C[C@H](C)[C@@H](CN(C)Cc2ccc(C(F)(F)F)cc2)Oc2c(NC(=O)C3CC3)cccc2C1=O,0.387 µM
10,O=C(NCCCn1ccnc1)c1cc(-c2ccccc2)on1,28.8 µM
11,CSc1ccc(S(=O)(=O)NC2CCCCC2)cc1,2.87 µM
12,C[C@H]1CN([C@@H](C)CO)C(=O)c2cccc(NC(=O)Nc3ccc(C(F)(F)F)cc3)c2O[C@@H]1CN(C)CC1CCCCC1,3.47 µM
13,Cc1ccc(-c2n[nH]c(=O)c3ccccc23)cc1S(=O)(=O)NCCN1CCOCC1,15.4 µM
14,Cc1cc(C)c(C)c(S(=O)(=O)Nc2ccc3cn[nH]c3c2)c1C,0.694 µM
15,Cc1ccc(C(=O)Nc2ccccc2C(=O)O)cc1S(=O)(=O)Nc1ccccc1,2.74 µM
16,C[C@@H]1CN([C@@H](C)CO)C(=O)c2cc(NC(=O)Nc3ccccc3)ccc2O[C@@H]1CN(C)Cc1ccc(C(=O)Nc2ccccc2N)cc1,13.4 µM
17,O=S(=O)(Nc1ccc(Cl)cc1)c1cccc2cccnc12,4.21 µM
18,CC1CCCCC1NC(=S)Nc1ccc(SC(F)F)cc1 (centres undefined),4.15 µM
19,COc1cc(C)c(Cl)c(C)c1S(=O)(=O)NCc1cccnc1,2.3 µM
20,Cc1ccccc1NS(=O)(=O)c1cc(C(=O)Nc2cccnc2)ccc1C,5.17 µM
21,COc1ccc(S(=O)(=O)Nc2ccc(S(=O)(=O)N3CCOCC3)cc2)cc1,14.7 µM
22,C[C@H](CO)N1C[C@H](C)[C@@H](CN(C)Cc2cncnc2)Oc2cc(C#CC3CCCC3)ccc2S1(=O)=O,0.805 µM
23,O=S(Cc1ccc(Cl)cc1)CC(O)(c1ccccc1)c1ccccc1 (centres undefined),18.1 µM
24,Cc1noc(C)c1NC(=O)Nc1cccc2c1O[C@@H](CN(C)Cc1ccc(Cl)c(Cl)c1)[C@@H](C)CN([C@H](C)CO)C2=O,0.826 µM

# — PubChem BioAssay AID652053 (Broad Institute, 2013)
